Experimental data taken from ChEMBL document CHEMBL5303573, “Mapping human microbiome drug metabolism by gut bacteria and their genes” (Nature, 2019).
Non-standard residues stand in square brackets, D forms with d. Residues, ends and D or L forms follow the SMILES beside them. pGlu = O=C1CC[C@@H](C(=O)O)N1; Thz = O=C(O)[C@@H]1CSCN1

Columns and labels:
[1] = The drug is tested on Bacteroides dorei strain: DSM17855 for biotransformation. The drug concentrations were measured before and after a 12-h incubation by liquid-chromatography-coupled mass spectrometry (LC–MS); conditions: phocaeicola dorei, 2 µM
[2] = The drug is tested on Clostridium ramosum strain: DSM1402 for biotransformation. The drug concentrations were measured before and after a 12-h incubation by liquid-chromatography-coupled mass spectrometry (LC–MS); conditions: thomasclavelia ramosa, 2 µM
[3] = The drug is tested on Eggerthella lenta strain: ATCC25559 for biotransformation. The drug concentrations were measured before and after a 12-h incubation by liquid-chromatography-coupled mass spectrometry (LC–MS); conditions: 2 µM
[4] = The drug is tested on Escherichia coli strain: BW25113 for biotransformation. The drug concentrations were measured before and after a 12-h incubation by liquid-chromatography-coupled mass spectrometry (LC–MS); conditions: 2 µM
[5] = victivallis vadensis, 12 h, 2 µM
Description: The drug is tested on Victivallis vadensis strain: ATCC BAA-548 for biotransformation. The drug concentrations were measured before and after a 12-h incubation by liquid-chromatography-coupled mass spectrometry (LC–MS)

[6] = segatella copri, 12 h, 2 µM
Description: The drug is tested on Prevotella copri strain: DSM18205 for biotransformation. The drug concentrations were measured before and after a 12-h incubation by liquid-chromatography-coupled mass spectrometry (LC–MS)

[7] = The drug is tested on Eubacterium rectale strain: ATCC33656 for biotransformation. The drug concentrations were measured before and after a 12-h incubation by liquid-chromatography-coupled mass spectrometry (LC–MS); conditions: agathobacter rectalis, 2 µM

Compound	Bacterial Biotransformation [1]	Bacterial Biotransformation [2]	Bacterial Biotransformation [3]	Bacterial Biotransformation [4]	Bacterial Biotransformation [5]	Bacterial Biotransformation [6]	Bacterial Biotransformation [7]
CCCc1nc2c(C)cc(-c3nc4ccccc4n3C)cc2n1Cc1ccc(-c2ccccc2C(=O)O)cc1	Compound metabolized	Compound NOT metabolized	Compound NOT metabolized	Compound NOT metabolized	–	–	–
CCN(CC)CCNC(C(=O)OCCC(C)C)c1ccccc1.Cl.Cl (configuration not stated)	–	Compound NOT metabolized	–	–	Compound NOT metabolized	Compound NOT metabolized	–
CN1CC(=O)N2[C@H](c3ccc4c(c3)OCO4)c3[nH]c4ccccc4c3C[C@@H]2C1=O	–	Compound NOT metabolized	–	–	–	–	Compound NOT metabolized
COc1cc2nc(N(C)CCCNC(=O)C3CCCO3)nc(N)c2cc1OC (configuration not stated) [ALFUZOSIN]	Compound metabolized	Compound NOT metabolized	–	Compound NOT metabolized	–	Compound NOT metabolized	Compound NOT metabolized
O=P(O)(O)O.c1ccc(CN(CC2=NCCN2)c2ccccc2)cc1 [ANTAZOLINE PHOSPHATE]	Compound NOT metabolized	–	–	–	–	Compound NOT metabolized	Compound NOT metabolized
CC(=O)OCC(=O)[C@@]1(O)[C@@H](C)C[C@H]2[C@@H]3CCC4=CC(=O)C=C[C@]4(C)[C@@]3(F)[C@@H](O)C[C@@]21C [BETAMETHASONE ACETATE]	Compound metabolized	Compound NOT metabolized	Compound NOT metabolized	Compound NOT metabolized	–	Compound NOT metabolized	Compound NOT metabolized
CC(O)(CS(=O)(=O)c1ccc(F)cc1)C(=O)Nc1ccc(C#N)c(C(F)(F)F)c1 (configuration not stated) [BICALUTAMIDE]	–	Compound NOT metabolized	–	Compound metabolized	–	Compound NOT metabolized	Compound NOT metabolized
O=C1CC2(CCCC2)CC(=O)N1CCCCN1CCN(c2ncccn2)CC1 [BUSPIRONE]	Compound NOT metabolized	Compound NOT metabolized	–	–	–	Compound NOT metabolized	Compound NOT metabolized
Br.CN1CCC[C@@H]1Cc1c[nH]c2ccc(CCS(=O)(=O)c3ccccc3)cc12 [ELETRIPTAN HYDROBROMIDE]	Compound NOT metabolized	Compound NOT metabolized	–	–	–	Compound NOT metabolized	Compound NOT metabolized
C[C@@H](CO)NC(=O)[C@@H]1C=C2c3cccc4[nH]cc(c34)C[C@H]2N(C)C1.O=C(O)/C=C\C(=O)O [ERGONOVINE MALEATE]	Compound metabolized	Compound NOT metabolized	–	Compound NOT metabolized	–	Compound metabolized	Compound NOT metabolized
CCc1cccc2c3c([nH]c12)C(CC)(CC(=O)O)OCC3 (configuration not stated) [ETODOLAC]	–	–	Compound NOT metabolized	Compound NOT metabolized	–	Compound NOT metabolized	–
N=C(N)NC(=O)Cc1c(Cl)cccc1Cl [GUANFACINE]	Compound NOT metabolized	Compound NOT metabolized	–	Compound NOT metabolized	Compound NOT metabolized	–	–
CC(C)(C)N.CCC[C@H](N[C@@H](C)C(=O)N1[C@H](C(=O)O)C[C@@H]2CCCC[C@@H]21)C(=O)OCC [PERINDOPRIL ERBUMINE]	Compound NOT metabolized	Compound NOT metabolized	–	Compound NOT metabolized	Compound NOT metabolized	–	–
CCOc1ccc(NC(C)=O)cc1 [PHENACETIN]	Compound NOT metabolized	–	–	Compound NOT metabolized	–	Compound NOT metabolized	Compound NOT metabolized
O=C1N=C([O-])NC1(c1ccccc1)c1ccccc1.[Na+] [PHENYTOIN SODIUM]	Compound metabolized	Compound NOT metabolized	–	Compound NOT metabolized	–	Compound NOT metabolized	–
O=C1CC[C@@H](C(=O)N2CSC[C@H]2C(=O)O)N1 [PIDOTIMOD] ([pGlu]-[Thz]-OH)	Compound metabolized	Compound NOT metabolized	–	Compound NOT metabolized	–	Compound metabolized	Compound NOT metabolized
CC(CN1c2ccccc2Sc2ccccc21)N(C)C (configuration not stated) [PROMETHAZINE]	–	Compound NOT metabolized	–	–	–	Compound NOT metabolized	Compound NOT metabolized

Compound	Bacterial Biotransformation [1]	Bacterial Biotransformation [2]	Bacterial Biotransformation [3]	Bacterial Biotransformation [4]	Bacterial Biotransformation [5]	Bacterial Biotransformation [6]	Bacterial Biotransformation [7]
COc1ccccc1OCC(O)CN1CCN(CC(=O)Nc2c(C)cccc2C)CC1 (configuration not stated) [RANOLAZINE]	Compound NOT metabolized	–	–	–	–	Compound NOT metabolized	Compound NOT metabolized
CN(CCOc1ccc(CC2SC(=O)NC2=O)cc1)c1ccccn1.O=C(O)/C=C\C(=O)O (configuration not stated) [ROSIGLITAZONE MALEATE]	Compound NOT metabolized	–	–	–	–	Compound NOT metabolized	–
CN[C@H]1CC[C@@H](c2ccc(Cl)c(Cl)c2)c2ccccc21 [SERTRALINE]	Compound NOT metabolized	Compound NOT metabolized	Compound NOT metabolized	Compound NOT metabolized	–	Compound NOT metabolized	Compound NOT metabolized
CCCc1nn(C)c2c(=O)[nH]c(-c3cc(S(=O)(=O)N4CCN(C)CC4)ccc3OCC)nc12.O=C(O)CC(O)(CC(=O)O)C(=O)O [SILDENAFIL CITRATE]	–	–	–	Compound NOT metabolized	–	Compound NOT metabolized	Compound NOT metabolized
O=C(CCCN1CCC2(CC1)C(=O)NCN2c1ccccc1)c1ccc(F)cc1 [SPIPERONE]	Compound NOT metabolized	Compound NOT metabolized	–	Compound NOT metabolized	–	Compound NOT metabolized	–
CCN1CCCC1CNC(=O)c1cc(S(N)(=O)=O)ccc1OC (configuration not stated) [SULPIRIDE]	Compound NOT metabolized	Compound NOT metabolized	Compound NOT metabolized	Compound NOT metabolized	–	–	Compound NOT metabolized
CCOc1ccccc1OCCN[C@H](C)Cc1ccc(OC)c(S(N)(=O)=O)c1.Cl [TAMSULOSIN HYDROCHLORIDE]	Compound NOT metabolized	Compound NOT metabolized	Compound NOT metabolized	Compound NOT metabolized	–	Compound NOT metabolized	–
COc1cc2nc(N3CCN(C(=O)C4CCCO4)CC3)nc(N)c2cc1OC (configuration not stated) [TERAZOSIN]	Compound NOT metabolized	–	Compound NOT metabolized	–	–	Compound NOT metabolized	Compound NOT metabolized
c1ccc2[nH]c(-c3cscn3)nc2c1 [THIABENDAZOLE]	Compound NOT metabolized	Compound NOT metabolized	Compound NOT metabolized	Compound NOT metabolized	–	Compound NOT metabolized	Compound NOT metabolized
Cc1ccc(S(=O)(=O)NC(=O)NN2CCCCCC2)cc1 [TOLAZAMIDE]	Compound metabolized	Compound NOT metabolized	–	Compound NOT metabolized	–	Compound metabolized	–
O=c1n(CCCN2CCN(c3cccc(Cl)c3)CC2)nc2ccccn12 [TRAZODONE]	Compound NOT metabolized	–	Compound NOT metabolized	Compound NOT metabolized	–	Compound NOT metabolized	Compound NOT metabolized
COc1cc(C(=O)NCc2ccc(OCCN(C)C)cc2)cc(OC)c1OC [TRIMETHOBENZAMIDE]	Compound NOT metabolized	–	–	–	–	Compound NOT metabolized	–
CCOC(=O)C1=C[C@]2(CC)CCCN3CCc4c(n1c1ccccc41)[C@@H]32 [VINPOCETINE]	–	Compound NOT metabolized	Compound NOT metabolized	Compound NOT metabolized	–	Compound NOT metabolized	Compound NOT metabolized
C[C@@H](c1ncncc1F)[C@](O)(Cn1cncn1)c1ccc(F)cc1F [VORICONAZOLE]	Compound metabolized	Compound NOT metabolized	Compound NOT metabolized	Compound NOT metabolized	–	Compound NOT metabolized	Compound NOT metabolized
CCN(C(C)=O)c1cccc(-c2ccnc3c(C#N)cnn23)c1 [ZALEPLON]	Compound metabolized	Compound NOT metabolized	–	Compound NOT metabolized	–	Compound NOT metabolized	–
Cc1cn([C@H]2C[C@H](N=[N+]=[N-])[C@@H](CO)O2)c(=O)[nH]c1=O [ZIDOVUDINE]	Compound metabolized	Compound NOT metabolized	Compound NOT metabolized	Compound NOT metabolized	–	Compound NOT metabolized	Compound NOT metabolized
